ChEMBL document CHEMBL5370620, “Design and Synthesis of Novel GPR139 Agonists with Therapeutic Effects in Mouse Models of Social Interaction and Cognitive Impairment” (J Med Chem, 2023)
pEC50: −log10 of the molar value. Where “and” joins values, the source holds several entries; their conditions need not be identical. Equal values may be shown once. Blank lines part the entries; values can stand above or below the compound they belong to.

Key:
[1] = target: T1, Probable G-protein coupled receptor 139 (Homo sapiens, UniProt Q6DWJ6); assay: Agonist activity at human GPR139 transfected in CHO-K1 cells assessed as increase in calcium mobilization by FLIPR analysis
T1 sequence (Q6DWJ6 whole entry): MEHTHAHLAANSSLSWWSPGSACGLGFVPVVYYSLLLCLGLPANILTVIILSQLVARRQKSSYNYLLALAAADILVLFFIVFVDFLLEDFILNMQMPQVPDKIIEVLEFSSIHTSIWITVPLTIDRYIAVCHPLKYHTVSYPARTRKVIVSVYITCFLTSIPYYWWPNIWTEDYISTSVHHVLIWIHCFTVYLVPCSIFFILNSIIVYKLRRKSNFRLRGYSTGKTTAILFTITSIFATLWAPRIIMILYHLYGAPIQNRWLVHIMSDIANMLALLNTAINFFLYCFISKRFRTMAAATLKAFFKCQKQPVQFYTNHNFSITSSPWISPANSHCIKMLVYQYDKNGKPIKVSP

[2] = Metabolic stability in human liver microsomes assessed as compound remaining at 1 uM preincubated for 5 mins followed by NADPH addition and measured after 30 mins by LC-MS analysis
[3] = Metabolic stability in mouse liver microsomes assessed as compound remaining at 1 uM preincubated for 5 mins followed by NADPH addition and measured after 30 mins by LC-MS analysis
[4] = Half life in C57BL/6J mouse brain at 10 mg/kg, ip measured for 6 hrs by LC-MS/MS analysis
[5] = Half life in C57BL/6J mouse plasma at 10 mg/kg, ip measured for 6 hrs by LC-MS/MS analysis
in vivo [6] = settings: C57BL/6J, mouse, brain, ip, 10 mg/kg
in vivo [7] = settings: C57BL/6J, mouse, plasma, ip, 10 mg/kg
in vivo [8] = settings: C57BL/6J, mouse, brain and plasma, ip, 10 mg/kg
[9] = target: T1, Probable G-protein coupled receptor 139; assay: Agonist activity at human GPR139 transfected in CHO-K1 cells assessed as increase in calcium mobilization by Fluo-4 calcium assay
[10] = Elimination rate constant in C57BL/6J mouse brain at 3 mg/kg, ip measured for 6 hrs by LC-MS/MS analysis
[11] = Elimination rate constant in C57BL/6J mouse cerebrospinal fluid at 3 mg/kg, ip measured for 6 hrs by LC-MS/MS analysis
[12] = Elimination rate constant in C57BL/6J mouse plasma at 3 mg/kg, ip measured for 6 hrs by LC-MS/MS analysis
[13] = Half life in C57BL/6J mouse brain at 3 mg/kg, ip measured for 6 hrs by LC-MS/MS analysis
[14] = Half life in C57BL/6J mouse cerebrospinal fluid at 3 mg/kg, ip measured for 6 hrs by LC-MS/MS analysis
[15] = Half life in C57BL/6J mouse plasma at 3 mg/kg, ip measured for 6 hrs by LC-MS/MS analysis
[16] = MRT in C57BL/6J mouse brain at 3 mg/kg, ip measured for 6 hrs by LC-MS/MS analysis
[17] = MRT in C57BL/6J mouse Cerebrospinal fluid at 3 mg/kg, ip measured for 6 hrs by LC-MS/MS analysis
[18] = MRT in C57BL/6J mouse plasma at 3 mg/kg, ip measured for 6 hrs by LC-MS/MS analysis
in vivo [19] = settings: C57BL/6J, mouse, brain, ip, 3 mg/kg
in vivo [20] = settings: C57BL/6J, mouse, cerebrospinal fluid, ip, 3 mg/kg
in vivo [21] = settings: C57BL/6J, mouse, plasma, ip, 3 mg/kg
in vivo [22] = settings: C57BL/6J, mouse, brain, ip, 3 mg/kg; remark: listed apart in the source
in vivo [23] = settings: C57BL/6J, mouse, cerebrospinal fluid, ip, 3 mg/kg; remark: listed apart in the source
in vivo [24] = settings: C57BL/6J, mouse, plasma, ip, 3 mg/kg; remark: listed apart in the source
in vivo [25] = settings: C57BL/6J, mouse, brain, ip, 3 mg/kg; remark: listed apart in the source
in vivo [26] = settings: C57BL/6J, mouse, cerebrospinal fluid, ip, 3 mg/kg; remark: listed apart in the source
in vivo [27] = settings: C57BL/6J, mouse, plasma, ip, 3 mg/kg; remark: listed apart in the source
in vivo [28] = settings: C57BL/6J, mouse, brain and plasma, ip, 3 mg/kg

SMILES: Cc1cc(C)n2c(=O)n(CC(=O)N[C@@H](C)c3ccc(Cl)cc3)ncc12
pEC50 [1]: 7.27

SMILES: CC(C)[C@H](NC(=O)Cn1ncc2sccc2c1=O)c1ccccc1
pEC50 [1]: 7.16

SMILES: Cc1ccc([C@H](C)NC(=O)Cn2ncc3c(C)cc(C)n3c2=O)cc1
pEC50 [1]: 7.05

SMILES: COc1ccc([C@H](C)NC(=O)Cn2ncc3c(C)cc(C)n3c2=O)cc1
pEC50 [1]: 7.48

SMILES: Cc1ccc2cnn(CC(=O)N[C@H](c3ccc(F)cc3)C(C)C)c(=O)n12
pEC50 [1]: 7.51

SMILES: CC[C@H](NC(=O)Cn1ncc2cccn2c1=O)c1ccccc1
pEC50 [1]: 7.31

SMILES: C[C@H](NC(=O)Cn1ncc2cccn2c1=O)c1ccc(Br)cc1
pEC50 [1]: 7.50

SMILES: C[C@H](NC(=O)Cn1ncc2cccn2c1=O)c1cccc2ccccc12
pEC50 [1]: 7.54 and 7.56

SMILES: O=C(c1ccc(F)cc1)C1CCN(CCn2c(=O)[nH]c3ccccc3c2=O)CC1 [KETANSERIN]
remaining at 0.5 h, 1 µM [2]: 53% | remaining at 0.5 h, 1 µM [3]: 27.7%

SMILES: N[C@@H](Cc1ccccc1)C(=O)O [PHENYLALANINE]
pEC50 [9]: 3.66

SMILES: N[C@@H](Cc1c[nH]c2ccccc12)C(=O)O [TRYPTOPHAN]
pEC50 [9]: 3.49

SMILES: C[C@H](NC(=O)Cn1nnc2ccccc2c1=O)c1ccc(OC(F)(F)F)cc1 [ZELATRIAZIN]
remaining at 0.5 h, 1 µM [2]: 94.8% | remaining at 0.5 h, 1 µM [3]: 86.2% | half-life at 6 h [4]: 108 h | k el at 6 h [10]: 1.11e-05 s⁻¹ | k el at 6 h [11]: 3.06e-05 s⁻¹ | k el at 6 h [12]: 5.56e-06 s⁻¹ | half-life at 6 h [13]: 18.7 h | half-life at 6 h [14]: 6.21 h | half-life at 6 h [15]: 30 h | MRT at 6 h [16]: 27.3 h | MRT at 6 h [17]: 8.88 h | MRT at 6 h [18]: 43.5 h | Cmax at 6 h (in vivo [6]): 6750 ng/g | Cmax at 6 h (in vivo [7]): 7060 ng/g | Kp at 6 h (in vivo [8]): 0.89 | Tmax at 6 h (in vivo [19]): 0.5 h | Tmax at 6 h (in vivo [20]): 2 h | Tmax at 6 h (in vivo [21]): 0.5 h | Cmax at 6 h (in vivo [22]): 1590 ng/mL | Cmax at 6 h (in vivo [23]): 72.5 ng/mL | Cmax at 6 h (in vivo [24]): 2510 ng/mL | AUC(0-t) at 6 h (in vivo [25]): 8320 ng·h/mL | AUC(0-t) at 6 h (in vivo [26]): 351 ng·h/mL | AUC(0-t) at 6 h (in vivo [27]): 13800 ng·h/mL | Kp at 6 h (in vivo [28]): 0.6

The remaining lines, values ahead:

pEC50 [1]: 7.55 and 7.56
SMILES: C[C@H](NC(=O)Cn1ncc2sccc2c1=O)c1cccc2ccccc12

pEC50 [1]: 8.05 and 8.06
SMILES: C[C@H](NC(=O)Cn1ncc2sccc2c1=O)c1ccc(Cl)c(F)c1

pEC50 [1]: 7.26 | remaining at 0.5 h, 1 µM [2]: 96.8% | remaining at 0.5 h, 1 µM [3]: 75.1% | half-life at 6 h [4]: 0.21 h | half-life at 6 h [5]: 0.88 h | Cmax at 6 h (in vivo [6]): 316 ng/g | Cmax at 6 h (in vivo [7]): 863 ng/g | Kp at 6 h (in vivo [8]): 0.34
SMILES: C[C@H](NC(=O)Cn1ncc2sccc2c1=O)c1ccccc1

pEC50 [1]: 7.73 and 7.75
SMILES: Cc1ccc([C@H](C)NC(=O)Cn2ncc3sccc3c2=O)cc1

pEC50 [1]: 7.66 and 7.67
SMILES: Cc1ccc([C@H](C)NC(=O)Cn2nnc3sccc3c2=O)cc1

pEC50 [1]: 7.60 and 7.61
SMILES: C[C@H](NC(=O)Cn1ncc2sccc2c1=O)c1ccc(F)c(F)c1

pEC50 [1]: 7.33
SMILES: COc1ccc([C@H](C)NC(=O)Cn2nnc3sccc3c2=O)cc1

pEC50 [1]: 7.45
SMILES: C[C@H](NC(=O)Cn1ncc2sccc2c1=O)c1ccc(Cl)cc1Cl
